Data as given in PubChem BioAssay AID624167 (Sanford-Burnham Center for Chemical Genomics, 2012).
The source made the active and inactive calls.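 Rule for the calls: active = mean IC50 for reducing PEG3 promoter reporter signal at or below a set limit, with IC50 above the limit in both counter screens; inactive = the rest, including counter screen hits.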

Key:
PEG-3 [1] = experiment: inhibition of PEG-3 promoter-driven reporter – cell-based, HeLa, luciferase, CREF/GAPDH counter-screen panel, dose response (AID 624167); details: HeLa PEG-Prom luciferase reporter, overnight, CREF/GAPDH counter-screens
[2] = as above; details: CREF/GAPDH counter-screens; GAPDH; mean of runs
GAPDH = experiment: as above; details: CREF/GAPDH counter-screens
Rat fibroblasts (CREF) = experiment: as above; details: CREF/GAPDH counter-screens
PEG-3 [3] = molecular target: PEG-3 (UniProt Q6IN02); experiment: as above; details: HeLa PEG-Prom luciferase reporter, overnight, CREF/GAPDH counter-screens, mean of runs
Chain of PEG-3 (UniProt Q6IN02) (Q6IN02 whole entry, looked up): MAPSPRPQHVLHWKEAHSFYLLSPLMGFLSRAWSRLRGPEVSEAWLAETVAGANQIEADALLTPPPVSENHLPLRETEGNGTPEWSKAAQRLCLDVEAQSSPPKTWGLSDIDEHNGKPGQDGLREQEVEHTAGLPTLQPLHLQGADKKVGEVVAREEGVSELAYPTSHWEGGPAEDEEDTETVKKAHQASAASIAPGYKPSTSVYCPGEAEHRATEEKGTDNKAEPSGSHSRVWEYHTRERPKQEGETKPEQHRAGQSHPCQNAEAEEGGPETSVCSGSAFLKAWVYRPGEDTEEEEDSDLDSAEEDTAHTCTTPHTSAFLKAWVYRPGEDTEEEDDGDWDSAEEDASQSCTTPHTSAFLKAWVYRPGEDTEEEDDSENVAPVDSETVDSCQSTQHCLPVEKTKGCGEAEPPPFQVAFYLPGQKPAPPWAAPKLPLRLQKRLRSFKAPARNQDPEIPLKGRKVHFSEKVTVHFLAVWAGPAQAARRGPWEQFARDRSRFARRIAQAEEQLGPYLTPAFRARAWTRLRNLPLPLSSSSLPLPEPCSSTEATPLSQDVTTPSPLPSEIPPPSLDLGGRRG

[4] = run 1, dose range 1, individual replicate IC50 per panel
[5] = run 2, dose range 1, individual replicate IC50 per panel

| SMILES | IC50 (PEG-3 [1]; [4]) | IC50 (PEG-3 [1]; [5]) | IC50 [2] | IC50 (GAPDH; [4]) | IC50 (GAPDH; [5]) | IC50 (Rat fibroblasts (CREF); mean of runs) | IC50 (Rat fibroblasts (CREF); [4]) | IC50 (Rat fibroblasts (CREF); [5]) | IC50 (PEG-3 [3]) |
| --- | --- | --- | --- | --- | --- | --- | --- | --- | --- |
| Oc1[nH]c2ccc(Br)cc2c1N=NC(=S)N1CCOCC1 | 1.25 µM | 0.885 µM | 13.8 µM | 18.8 µM | 8.78 µM | 50.3 µM (inactive) | > 100 µM | 0.611 µM | 1.07 µM |
| CCCC(=O)NC(c1ccccc1)c1ccc2cccnc2c1O (stereo not given) | 3.04 µM | 1.91 µM | > 100 µM (inactive) | > 100 µM | > 100 µM | 13.1 µM | 0.587 µM | 25.7 µM | 2.47 µM |
| CS(=O)(=O)Nc1cccc(NC(=O)C2Cc3c(-c4ccccc4)ccnc3O2)c1 (stereo not given) | 7.17 µM | 7.59 µM | inactive | > 100 µM | 86.7 µM | > 100 µM (inactive) | > 100 µM | > 100 µM | 7.38 µM |
| O=C(CSC1c2ccccc2-c2ccccc21)N/N=C/c1ccccc1O | 3.04 µM | > 100 µM | > 100 µM (inactive) | > 100 µM | > 100 µM | 69.5 µM (inactive) | > 100 µM | 38.9 µM | inactive |
| CCSc1nc2ccccc2n1C(=O)/C=C\c1ccc(OC)c(OC)c1 | 4.86 µM | 6.08 µM | 14.6 µM | 14.2 µM | 15 µM | 72.8 µM (inactive) | 45.7 µM | > 100 µM | 5.47 µM |
| CC(=O)NC(c1ccc(Cl)cc1)c1ccc2cccnc2c1O (stereo not given) | 1.47 µM | 2.04 µM | inactive | 58.8 µM | 56 µM | > 100 µM (inactive) | > 100 µM | > 100 µM | 1.75 µM |
| CC1CC(C)C(=O)C(C(CC2CC(=O)NC(=O)C2)OC(=O)CC(=O)c2ccccc2)C1 (stereo not given) | 1.78 µM | 0.549 µM | 1.01 µM | 0.605 µM | 1.42 µM | > 100 µM (inactive) | > 100 µM | > 100 µM | 1.16 µM |
| CN1OC[C@@H]2CN(S(=O)(=O)c3cccc(C(F)(F)F)c3)[C@H](c3ccc(-c4cc5ccccc5o4)cc3)C[C@@H]21 | 18.7 µM | 1.06 µM | inactive | 44.3 µM | 37.8 µM | > 100 µM (inactive) | > 100 µM | > 100 µM | 9.9 µM |
| CCCn1nc(C(=O)Nc2nc(-c3ccccn3)cs2)c2ccccc2c1=O | 7.15 µM | 8.31 µM | inactive | > 100 µM | 80.9 µM | > 100 µM (inactive) | > 100 µM | > 100 µM | 7.73 µM |
| CCCCCCCn1c(=N)n(CC(=O)c2ccco2)c2ccccc21 | 0.395 µM | > 100 µM | inactive | 27 µM | 35 µM | 30.7 µM | 29.2 µM | 32.1 µM | inactive |
| COC(=O)C1C=CC(OC2OC(COC(C)=O)C(OC(C)=O)C(OC(C)=O)C2OC(C)=O)n2c(=O)n(-c3ccccc3)c(=O)n21 (stereo not given) | 10.2 µM | 8.07 µM | 18.5 µM | 19.4 µM | 17.7 µM | 8.06 µM | 6.83 µM | 9.29 µM | 9.13 µM |
| COc1ccc(/C=C2\SC(=S)N(CCCC(=O)NNC(=O)c3ccccc3O)C2=O)cc1 | 6.31 µM | 1.41 µM | inactive | 21.9 µM | > 100 µM | 71.6 µM (inactive) | > 100 µM | 43.3 µM | 3.86 µM |
| O=C(COc1ccc2c(c1)CCC2)Nc1ccccn1 | 3.52 µM | 5.59 µM | 5.82 µM | 2.94 µM | 8.7 µM | 33.2 µM | 29.2 µM | 37.2 µM | 4.55 µM |
| CCOc1cccc(/C=N/NC(=S)Nc2cc(S(=O)(=O)N3CCOCC3)ccc2N2CCOCC2)c1O | 9.08 µM | 25.5 µM | > 100 µM (inactive) | > 100 µM | > 100 µM | 72.8 µM (inactive) | > 100 µM | 72.8 µM | 17.3 µM |
| COc1cc(CNCCCN2CCOCC2)cc(Br)c1OCc1ccc(Cl)cc1 | 9.57 µM | 8.99 µM | 12.3 µM | 15.3 µM | 9.28 µM | 14.4 µM | > 80 µM | 14.4 µM | 9.28 µM |
